According to patent US8912136B2, “Methods and compositions related to clot-binding compounds” (Sanford-Burnham Medical Research Institute, priority 2009, dated 2014):
Where no end group is shown, it is not given here. [ ]: non-standard residue; d: D form. NMeR = CN[C@@H](CCCNC(=N)N)C(=O)O; αMeR = C[C@](N)(CCCNC(=N)N)C(=O)O; NMeE = CN[C@@H](CCC(=O)O)C(=O)O; αMeE = C[C@](N)(CCC(=O)O)C(=O)O

What was measured:
[1] = test system: orthotopic 22Rv1 xenograft tumors; assay: In vivo homing of FAM-labeled CREKA and methylated CREKA peptides; parameters: species or system mouse; settings: for tumor fluorescence compared to unmodified CREKA: 200 μg FAM-conjugated peptide, 3 hrs, Image J
Procedure: Tumor accumulation of CREKA peptide and its N-methylated and C-methylated variants. The accumulation of N-methylated and C-methylated derivatives of CREKA was measured in mice bearing orthotropic 22Rv-1 xenograft tumors. The mice were intravenously injected with 200 μg of FAM-conjugated CREKA or methylated CREKA peptides derivatives. The peptides were allowed to circulate for 3 hrs. The mice were then perfused through the heart with PBS, and organs were collected and the fluorescence was measured under UV light. The fluorescence was analyzed with Image J software. Most N/C-methylated CREKA analogs produced stronger fluorescence compared to the unmodified CREKA. […] In FIG. 10B the enhanced fluorescence of CR(NMe)EKA is shown in the tumor compared to both CREKA and C(NMe)REKA peptide. It is shown that FAM-labeled CREKA peptide in which the glutamic acid is N-methylated accumulates in tumor tissue more strongly than unmodified CREKA.
Orthotopic prostate cancers were used when they reached 0.5-1 cm in size. Synthetic peptides labeled with fluorescein (approximately 200 μg) were intravenously injected into tumor-bearing mice and allowed to circulate for 15 minutes to 3 hours. The mice were perfused with PBS through the heart under anesthesia, and tissues were collected and observed under UV light (Illumatool Bright Light System LT-9900, Lightools Research, Encinitas, Calif.), and then processed for immunofluorescence or immunohistochemistry.

human plasma clots = assay: Nanoparticle binding to plasma clots in vitro
Procedure: (§1) Phage and nanoparticle binding to clots. Phage binding to clotted plasma proteins was determined as described (Pilch 2006). CREKA-SPIO and control SPIO were added to freshly formed plasma clots in the presence or absence of free CREKA peptide. After 10 min incubation, the clots were washed 4 times in PBS, transferred to a new tube and digested in 100 μl concentrated nitric acid. The digested material was diluted in 2 ml distilled water and the iron concentration was determined using inductively coupled plasma-optical emission spectroscopy (ICP-OES, PerkinElmer, Norwalk, Conn.).

mouse plasma clots = assay: Nanoparticle binding to plasma clots in vitro
Procedure: as §1

[2] = Nanoparticle clearance (blood half-life); format: in vivo, mouse
Procedure: Nanoparticle injections. For intravenous injections, the animals were anesthetized with intraperitoneal Avertin, and liposomes (2 μmol DSPC) and/or nanoparticles (1-4 mg Fe/kg body weight) were injected into the tail vein. The animals were sacrificed 5-24 h post-injection by cardiac perfusion with PBS under anesthesia, and organs were dissected and analyzed for particle homing. To suppress liver macrophages, mice were intravenously injected with liposomal clodronate suspension (100 μl per mouse), and the mice were used for experiments 24 hours later. Nanoparticle clearance. Heparinized capillaries were used to draw 50 μA of blood from the periorbital plexus at different times after nanoparticle injection, the blood was centrifuged at 300 g for 2 min, and a 10 μA aliquot of platelet-rich plasma was diluted into 600 μl 1M Tris solution, pH 8.4. Fluorescence was determined on a PerkinElmer (Norwalk, Conn.) LS50B spectrofluorometer, and plotted as a function of the time the particles had circulated.

[3] = test system: MDA-MB-435 human breast cancer xenograft tumors; assay: Nanoparticle/liposome tumor homing and clotting in tumor vessels; format: in vivo, mouse
Procedure: Nanoparticle injections. For intravenous injections, the animals were anesthetized with intraperitoneal Avertin, and liposomes (2 μmol DSPC) and/or nanoparticles (1-4 mg Fe/kg body weight) were injected into the tail vein. The animals were sacrificed 5-24 h post-injection by cardiac perfusion with PBS under anesthesia, and organs were dissected and analyzed for particle homing. To suppress liver macrophages, mice were intravenously injected with liposomal clodronate suspension (100 μl per mouse), and the mice were used for experiments 24 hours later.
Intravital microscopy. Tumor blood flow in MDA-MB 435 xenograft-bearing mice was observed by intravital microscopy. Mice were pre-injected with Ni-liposomes and 5×10^8 of DiI-labeled erythrocytes. A skin flap was moved aside to expose the tumors, and the mice were intravenously injected with 4 mg/kg of fluorescein-CREKA-SPIO (time “0”). The tumors were scanned with IV-100 intravital laser scanning microscope (Olympus Corp., Tokyo, Japan) using an IV-OB35F22W29 MicroProbe objective (Olympus Corp., Tokyo, Japan). Movies were recorded at 10 min intervals up to 120 min post-injection.
Magnetic measurements of the tissue samples using Superconducting Quantum Interference Device (SQUID) magnetometer. Tissue samples were frozen immediately upon collection, lyophilized, weighed, and placed in gelatin capsules. The capsules were inserted into the middle of transparent plastic straws for magnetic measurements made using a Quantum Design MPMS2 SQUID magnetometer (San Diego, Calif.) operated at 150 K. The samples were exposed to direct current magnetic fields in stepwise increments up to one Tesla. Corrections were made for the diamagnetic contribution of tissue, capsule and straw.

[4] = test system: 22Rv1 orthotopic human prostate cancer tumors; assay: Homing and clotting of peptide-coated iron oxide nanoworms/SPIO; format: in vivo, mouse; settings: intravenous, Example 2
Procedure: To analyze NW biodistribution, mice bearing orthotopic 22Rv1 tumors were injected into the tail vein (5 mg of iron per kg body weight). In homing experiments, the mice were euthanized 5-6 hours after the injection by cardiac perfusion with PBS under anesthesia, and organs were dissected and analyzed for particle homing. In tumor treatment experiments, nude mice bearing 2 week-old 22Rv-1 or LAPC9 orthotopic xenografts (typically about 200-250 mm^3 in tumor volume) were intravenously injected with NW in 150 μl PBS or PBS as a control. The NW were injected every other day for 14 days. The total cumulative dose was 35 mg iron/kg. At the end of the treatment, the mice were perfused with PBS under anesthesia, and the tumors were harvested. Tumor volume was calculated using the following formula: volume (mm3)=(d2×D)/2, where d and D are the smallest and largest tumor diameters, respectively. […] The primary antibodies were detected with Alexa 647 goat anti-rat, and 647 donkey anti-goat secondary antibodies (1:1000; Molecular Probes, Eugene, Oreg.). […] The primary antibody was detected with biotinylated anti-mouse IgG and Vectastain ABC kit (Vector Laboratories, Burlingame, Calif.). […] To quantify the homing area of fibrin(ogen) within tumors the stained section were scanned with the Scanscope CM-1 scanner and analyzed with the ImageScope software41 (Aperio Technologies, Vista, Calif.).

[5] = intravenous, no decoy pretreatment

In the case of “CRE(CMe)KA: Cα-methylated CREKA analog (CR[αMeE]KA)”, the “tumor fluorescence compared to unmodified CREKA” value [1] is reported as “significantly more fluorescence” and the “accumulation in areas rich in fibrin(ogen) and fibronectin” value ([1]; confocal microscopy of tumor sections) is reported as “equally active”.
For “CRE(NMe)KA: N-methylated CREKA analog (CR[NMeE]KA)”, the “tumor fluorescence compared to unmodified CREKA” value [1] was “significantly more fluorescence”.
For “C(NMe)REKA: CREKA analog in which the arginine residue is N-methylated (C[NMeR]EKA)”, the “tumor fluorescence compared to unmodified CREKA” value [1] was “did not show an enhanced fluorescence” and the “tumor accumulation / fluorescence of CREKA analogs” value ([1]; FAM-labeled peptides, Example 3) was “only weak tumor fluorescence”.
For “CR(NMe)E(NMe)KA: doubly N-methylated CREKA analog (C[NMeR][NMeE]KA)”, the “tumor fluorescence compared to unmodified CREKA” value [1] was “significantly more fluorescence”.
In the case of “CREKA-SPIO: fluorescein-labeled CREKA coupled onto 50 nm superparamagnetic amino dextran-coated iron oxide nanoparticles (not fully specified (N-terminus); also: conjugated to dextran-coated superparamagnetic iron oxide nanoparticles (SPIO))”, the “binding to plasma clots” value (human plasma clots) is reported as “bound to mouse and human plasma clots”, the “binding to plasma clots” value (mouse plasma clots) is reported as “bound to mouse and human plasma clots” and the “prolongation in particle half-life” value ([2]; after depleting RES macrophages with liposomal clodronate) is reported as about 5 fold. The “blood half-life and tumor homing after decoy particles” value ([2]; plain liposomes as decoy particles) was “prolonged the blood half-life”, the “whole-body scan tumor signal” value ([3]; Cy7-labeled, near infrared) was “effectively accumulated in tumors” and the “intravital confocal microscopy of tumor blood vessels” value ([3]; DiI-labeled erythrocytes as flow marker, 4 mg/kg) was “time-dependent clot formation and obstruction of blood flow”. For the same substance, the “accumulation in Ni-liposome-pretreated compared to PBS-pretreated mice” value ([3]; SQUID tumor magnetization and fluorescence signal) was “about 6 fold”, the “reduction of tumor accumulation by heparin” value ([3]; SQUID, heparin prior to injection) was “more than 50%” and the “tumor vessel lumens filled with fluorescent masses (occlusion)” value ([3]; after liposome pretreatment) was “up to 20%”. For the same substance, the “effect of thrombocytopenia on homing” value ([3]; anti-CD41 monoclonal antibody) was “no noticeable effect”, the “heparin effect on intravascular clotting” value ([3]; heparin pretreatment) was “essentially eliminated” and the “heparin effect on number of vessels with nanoparticles bound to the vessel walls” value ([3]; heparin pretreatment) was “did not significantly reduce”. The accumulation in tumor [3, 5] was “did not accumulate effectively”, the “particles in reticuloendothelial system (RES) tissues” value [3, 5] was “high concentration of particles” and the “tumor homing after Ni-liposome pretreatment” value ([3]; pretreatment 5 min or 48 h prior) was “greatly increased the tumor homing”. For the same substance, the “localization of nanoparticle-induced clotting” value ([3]; tumor versus kidneys, lungs, liver) was “essentially confined to tumor vessels” and the tumor homing [4] was “effectively home to 22Rv-1 tumors”.
With “CR(CMe)EKA: Cα-methylated CREKA analog (C[αMeR]EKA)” the “tumor fluorescence compared to unmodified CREKA” value [1] was “significantly more fluorescence”.
